The values that follow are results of earlier work, collected in patent publication US20130136780A1, “CROSSLINKED POLYSACCHARIDE GEL COMPOSITIONS FOR MEDICAL AND COSMETIC APPLICATIONS” (ALLERGAN, INC., priority 2007, published 2013).

The conditions of this data set: osteoarthritis patient, intra-articular injection of 40 mg; Selvi et al. 2004.

`CC(C)(C)CC(=O)OCC(=O)[C@@]12OC(C)(C)O[C@@H]1C[C@H]1[C@@H]3CCC4=CC(=O)C=C[C@]4(C)[C@@]3(F)[C@@H](O)C[C@@]12C` [triamcinolone hexacetonide]: the “adverse outcome after intra-articular injection (case report)” value is “developed acute arthritis induced by the injected triamcinolone crystals”.
